# Literature values in patent US10196677B2, “Method for identification of sensitivity of a patient to telomerase inhibition therapy” (Geron Corporation, priority 2008, dated 2019).
# “Also recorded” adds a separate entry of the source. [NPS] = N3'→P5' thiophosphoramidate linkage
# Key:
# cancer cells = conditions: cell culture, various cancer cell types
# animal tumor models = animal tumor models / human cancer cells, local and systemic delivery
substance,measurement,setting,value
"GRN163: oligonucleotide with sequence TAGGGTTAGACAA (SEQ ID NO:2) and N3′→P5′ thiophosphoramidate (NPS) linkages; hTR template inhibitor (all [NPS], sugars by position and methylation of C not given here)",Inhibitory activity / growth inhibition of cancer cells in vitro,cancer cells,has shown inhibitory activity in vitro in cell culture; also recorded: have shown inhibitory activity in vitro
same,Activity against tumors in vivo,animal tumor models,therapeutically effective
